{"source": "patent US5436243A", "about": "“Aminoanthraquinone derivatives to combat multidrug resistance” (priority 1993, dated 1995)", "key": {"[1]": {"test": "[3H] VLB binding to MCF7 WT membrane vesicles", "design": "species or system human", "settings": "MCF7 WT membrane vesicles", "protocol": "METHOD: Membrane vesicles from sensitive and MDR MCF7 were prepared by nitrogen cavitation and isolated by centrifugation in discontinuous sucrose gradients. […] In the presence of 100 nM [^3 H] VLB and ATP, total and nonspecific binding of [^3 H] VLB (experimentally defined as binding in the presence of a 100 μM unlabeled VLB) was measured. Association of [^3 H] […] In contrast, association of [^3 H] […] VLB with MCF7 WT vesicles."}, "[2]": {"system": "MCF7 Adr 10 human breast cancer cells", "test": "Vinblastine accumulation assay, MCF7 Adr 10", "type": "cell-based", "protocol": "[^3 H] vinblastine ([^3 H] VLB) was added to a final concentration of 100 nM and the cells were incubated for 2.5 hours. At this time, the cells were washed 3 times in ice cold PBS and lysed in buffer containing 0.1% Triton X-100. Net accumulation of [^3 H] vinblastine was expressed as pmol/mg protein. In [^3 H]"}, "[3]": {"system": "MARCKS protein", "test": "Phosphorylation of MARCKS in intact MCF7 Adr 10 cells", "type": "cell-based, human", "settings": "MCF7 Adr 10, representative time course experiment, FIG. 12", "source_text": "The effects of compound 1c on phosphorylation of the P-glycoprotein and the MARCKS protein (myristoylated alanine-rich C kinase substrate) was studied in intact cells labeled with [^32 P] orthophosphate. The MARCKS protein (also known as the 80 to 87 kD protein) is observed to be rapidly phosphorylated subsequent to PKC activation by phorbol esters, cell permeant diacylglycerols, growth factor and hormonal stimulation in a variety of cell types from several species. […] In these experiments, phosphorylation of MARCKS was used as a marker of cellular PKC activity. The effects of 1c on phosphorylation states of the P-glycoprotein and MARCKS protein were studied to test the possibility that this compound may be inhibiting PKC in cells; due to metabolism to an active PKC inhibitor or by achieving inhibitory concentrations in the microenvironment of the P-glycoprotein.\nMETHOD: A monoclonal antibody to the P-glycoprotein, C219, was used to immunoprecipitate the P-glycoprotein and a polyclonal rabbit antibody was used to immunoprecipitate the MARCKS protein from extracts of cells labeled with [^32 P]. MARCKS was immunoprecipitated after preclearing the aliquot with normal rabbit IgG. MCF7 Adr 10 cells were labeled with [^32 P] orthophosphate for two hours. […] P-glycoprotein and MARCKS were immunoprecipitated from aliquots of the same sample containing equivalent radioactivity."}, "[4]": {"system": "MCF7 Adr 10", "test": "72 hour MTT proliferation assay, reversal of drug resistance in MCF7 Adr 10", "type": "cell-based, human", "protocol": "In 72 hour MTT proliferation assays using the following method, compounds 1b, 1c and 1d were assessed for inhibition of Vinca alkaloid and anthracycline drug resistance in MDR MCF7. Additionally, compounds 1b and 1c were assessed for potentiation of sensitivity to Vinca alkaloid and anthracycline drugs in the parental MCF7 WT cell line.\nMETHOD: 5000 cells per well were plated in 100 μl of IMDM containing 10% FCS and allowed to adhere overnight. The following day the cells were treated with N-substituted 1,4-diaminoanthraquinones and exposed to graded concentrations of antineoplastic agents. 50 μl of IMDM 10% FCS containing either vehicle or N-substituted 1,4-diaminoanthraquinones at 3 times the final tested concentration was added to cells at timed intervals. The plates were incubated for 2 hours at 37° C. to allow maximal cellular accumulation of N-substituted 1,4-diaminoanthraquinones. 40 μl aliquots of IMDM 10% FCS containing either vehicle or graded concentrations of antineoplastic drugs at 5 times the final concentration were added to treatment groups. Following this addition, 10 μl of IMDM 10% FCS containing either vehicle or N-substituted 1,4-diaminoanthraquinone at 5 times the final concentration was added to each group of wells. The cells were incubated for 72 hours after treatment. At this time the viable cells in each treatment group were estimated in a colorimetric assay by adding MTT and incubating the cells at 37° C. for 3-4 hours. The media in each well was aspirated and MTT formazan was solubilized in isopropyl alcohol acidified with 0.1 N HCl. The absorbance of the solubilized formazan was quantitated using a plate reader spectrophotometer. […] The concentrations of antineoplastic drugs which inhibited proliferation by 50% (IC50's) were estimated by calculating a percentage from the ratio: antineoplastic drug treated groups/control group absorbance and plotting the dose response curve on semilog paper. The IC50 was estimated from this curve. To assess the effects of inhibition of resistance by N-substituted 1,4-diaminoanthraquinones, the percentages were calculated relative to cell groups treated with resistance modifier alone and IC50's calculated as above. A reversal factor was calculated by dividing the IC50 to the antineoplastic drug alone (Control group) by the IC50 to antineoplastic drug in cells treated with resistance modifier."}, "[5]": {"target": "P-glycoprotein in MCF7 Adr 10 membrane vesicles (Homo sapiens, UniProt P08183)", "sequence (P08183 whole entry)": "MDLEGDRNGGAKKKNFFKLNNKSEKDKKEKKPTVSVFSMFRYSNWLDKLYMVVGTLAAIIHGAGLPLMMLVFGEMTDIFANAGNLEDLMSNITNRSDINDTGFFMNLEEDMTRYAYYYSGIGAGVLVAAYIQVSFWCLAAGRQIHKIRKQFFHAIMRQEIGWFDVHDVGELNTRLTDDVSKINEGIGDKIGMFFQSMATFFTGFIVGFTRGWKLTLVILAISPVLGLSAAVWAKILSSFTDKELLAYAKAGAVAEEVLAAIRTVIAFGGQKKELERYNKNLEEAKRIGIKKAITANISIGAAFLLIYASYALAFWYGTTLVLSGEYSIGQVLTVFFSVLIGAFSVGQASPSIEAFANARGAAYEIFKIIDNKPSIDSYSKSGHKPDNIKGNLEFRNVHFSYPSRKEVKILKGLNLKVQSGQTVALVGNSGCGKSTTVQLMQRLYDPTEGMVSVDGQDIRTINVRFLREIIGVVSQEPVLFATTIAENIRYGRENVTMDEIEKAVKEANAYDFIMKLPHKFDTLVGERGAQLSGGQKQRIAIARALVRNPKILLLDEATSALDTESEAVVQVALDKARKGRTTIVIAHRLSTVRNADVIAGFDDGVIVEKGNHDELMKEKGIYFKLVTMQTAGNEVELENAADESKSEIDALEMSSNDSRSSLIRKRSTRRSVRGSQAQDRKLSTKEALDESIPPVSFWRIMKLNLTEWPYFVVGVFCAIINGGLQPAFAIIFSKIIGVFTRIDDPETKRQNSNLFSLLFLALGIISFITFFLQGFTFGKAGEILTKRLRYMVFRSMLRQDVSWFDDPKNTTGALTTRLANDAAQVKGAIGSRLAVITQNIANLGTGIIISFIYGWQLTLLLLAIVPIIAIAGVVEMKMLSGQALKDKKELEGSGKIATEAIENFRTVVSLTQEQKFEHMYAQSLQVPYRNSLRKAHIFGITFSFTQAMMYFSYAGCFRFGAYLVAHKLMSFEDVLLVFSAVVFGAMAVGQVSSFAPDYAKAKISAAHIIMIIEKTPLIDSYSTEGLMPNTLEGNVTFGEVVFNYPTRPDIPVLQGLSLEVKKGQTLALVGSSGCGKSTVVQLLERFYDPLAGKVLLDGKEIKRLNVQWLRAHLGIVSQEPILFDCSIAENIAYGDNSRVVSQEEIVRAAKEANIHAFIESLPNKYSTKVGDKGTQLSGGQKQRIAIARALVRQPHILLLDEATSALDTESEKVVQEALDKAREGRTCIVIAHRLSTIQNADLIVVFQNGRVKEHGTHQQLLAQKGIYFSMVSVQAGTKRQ"}, "[6]": {"system": "PKC", "test": "Micellar PKC screening assay", "type": "biochemical", "source_text": "The N-substituted diaminoanthraquinone, 1b, (1,4-bis-[[3'-(diethylamino)propyl]amino]anthraquinone), was identified as a PKC inhibitor in the micellar PKC screening assay and in platelets. […] Spectrophotometric analysis of 1b and lc indicated they were excellent chromophores with absorbance maxima at 648 and 600 nm in chloroform, respectively, and extinction coefficients of approximately 20,000. At these wavelengths, there was minimal absorbance by cellular components contained in the chloroform phase. These properties of 1b and 1c were utilized to determine the time course of accumulation of these compounds in MDR MCF7 Adr 10 cells.\nThe activities of 1a, 1b, 1c and 1d and mitoxantrone, an anthraquinone antineoplastic drug, were evaluated in vinblastine drug accumulation assays performed by the following method. […] Mitoxantrone was identified as a PKC inhibitor in miceliar PKC assays. Compound 1d (1,4-bis-[[2-(4-morpholino)ethyl]amino]anthraquinone) was only evaluated in cellular studies."}}, "note": "Entries after “also recorded” stand apart in the source; their conditions may differ."}
{"smiles": "O=C1c2ccccc2C(=O)c2c(NCCCN3CCOCC3)ccc(NCCCN3CCOCC3)c21", "note": "[Compound 1c, 1,4-bis-[[3'(4-morpholino)propyl]amino]anthraquinone]", "values": [{"measurement": "effect on specific binding of [3H] VLB", "setting": "[1]", "result": "no effect"}, {"measurement": "minimal effective concentration", "setting": "[2]; Homo sapiens, NCI/ADR-RES, 100 nM [3H] VLB, 2.5 hours, FIGS. 2 and 3, read-out: lowest concentration which causes a doubling of basal accumulation of vinblastine", "result": 0.5, "unit": "µM"}, {"measurement": "activity in vinblastine accumulation assay / drug accumulation", "setting": "[2]; MDR MCF7", "result": "greater activity than 1b; also recorded: greatest activity in drug accumulation assays; also recorded: increase vinblastine accumulation in MDR MCF7; also recorded: activity superior to verapamil at concentrations between 0.5 μM and 10 μM"}, {"measurement": "increase of MARCKS phosphorylation", "setting": "[3]", "result": 3, "unit": "fold"}, {"measurement": "inhibition of Vinca alkaloid drug resistance", "setting": "[4]", "result": "inhibit Vinca alkaloid drug resistance at nanomolar concentrations"}, {"measurement": "inhibition of drug resistance / MDR phenotype", "setting": "[4]; MCF7 Adr 10", "result": "most potent inhibitor of the MDR phenotype in the MCF7 Adr 10 cell line; also recorded: more potent MDR phenotype inhibitor than 1d"}, {"measurement": "Reversal Factor (VCR)", "setting": "[4]; [1c] 0.1 μM", "result": 2.3}, {"measurement": "Reversal Factor (VLB)", "setting": "[4]; [1c] 0.1 μM", "result": 2.2}, {"measurement": "Reversal Factor (VCR)", "setting": "[4]; [1c] 0.25 μM", "result": 5.0}, {"measurement": "Reversal Factor (VLB)", "setting": "[4]; [1c] 0.25 μM", "result": 3.5}, {"measurement": "Reversal Factor (ADR)", "setting": "[4]; [1c] 0.5 μM", "result": 2.0}, {"measurement": "Reversal Factor (DNR)", "setting": "[4]; [1c] 0.5 μM", "result": 1.9}, {"measurement": "Reversal Factor (VCR)", "setting": "[4]; [1c] 0.5 μM", "result": 10.4}, {"measurement": "Reversal Factor (VLB)", "setting": "[4]; [1c] 0.5 μM", "result": 8.5}, {"measurement": "Reversal Factor (ADR)", "setting": "[4]; [1c] 1.0 μM", "result": 3.3}, {"measurement": "Reversal Factor (DNR)", "setting": "[4]; [1c] 1.0 μM", "result": 3.2}, {"measurement": "Reversal Factor (VCR)", "setting": "[4]; [1c] 1.0 μM", "result": 24.8}, {"measurement": "Reversal Factor (VLB)", "setting": "[4]; [1c] 1.0 μM", "result": 9.2}, {"measurement": "average cell growth in the presence of 1c alone, of the vehicle control", "setting": "[4]; test concentrations, n=14, 4320 min", "result": "greater than 86%"}, {"measurement": "effect on non-specific binding of [3H] VLB", "setting": "[5]", "result": "no effect"}, {"measurement": "PKC activity in micellar PKC screening assay", "setting": "[6]", "result": "marginal PKC inhibitory activity"}]}
